Reference: patent publication US10758516B2, “Methods and compositions for the treatment of gliomas” (University of Cincinnati, priority 2017, dated 2020)

Tests used:
EP2 receptor [1] = target: T1, EP2 receptor (Homo sapiens, UniProt P43116); experiment: PGE2-mediated cAMP signaling in LN229 glioma cells; type: cell-based; conditions: for PGE2-promoted cAMP synthesis: antagonist 1 μM and 10 μM, n=5
T1 construct: endogenous in cells; host or cells: SF767 human glioblastoma cells
Source text: (§1) FIG. 1. Bar graph showing PGE2 mediated cAMP signaling via EP2 receptor in human malignant glioma cells LN229 (top) and SF767 (bottom).
(§2) (n=5, *P<0.05; ***P<0.001, one-way ANOVA and post-hoc Bonferroni test). Data are shown as mean+SEM.

EP2 receptor [2] = target: T1, EP2 receptor; experiment: PGE2-mediated cAMP signaling in SF767 glioma cells; type: cell-based; conditions: for PGE2-promoted cAMP synthesis: antagonist 1 μM and 10 μM, n=5
Source text: as §1, §2

human GBM cells SF767 = experiment: Cell invasion of COX-2-overexpressing SF767 cells; type: cell-based; conditions: 10 μM, measured after 48 h, n=4, P<0.01 vs control
GBM cells LN229 = experiment: Wound closure (migration) of COX-2-overexpressing LN229 cells; type: cell-based, human; conditions: 10 μM, n=3, compared with COX-2 overexpression group
[3] = system: flank tumors formed by human GBM cells SF767; experiment: Flank (subcutaneous) tumor xenograft in athymic nude mice; type: in vivo; conditions: 10 mg/kg, p.o., b.i.d.; measured 4 weeks after xenograft surgery; n=7, P<0.05
Source text: FIG. 4. Bar graph comparing flank tumor size in athymic nude mice treated with vehicle versus mice treated with TG6-10-1 measured 4 weeks after xenograft surgery.
Data are shown as mean+SEM.

[4] = system: intracranial tumors formed by human GBM cells LN229; experiment: Intracranial (orthotopic) tumor xenograft in athymic nude mice; type: in vivo
Source text: FIG. 8. Graph showing that the survival rate of mice harboring intracranial tumors derived from human GBM cells LN229 receiving TG6-10-1 is greater than the survival rate of mice receiving vehicle only.
Data are shown as mean±SEM.
Survival rates of mice that harbored intracranial tumors derived from human GBM cells LN229 after receiving vehicle (n=20) or TG6-10-1 (n=28) for 28 days (P=2.835E-4 Kaplan-Meier survival analysis with post-hoc log-rank test).

[5] = concentration-dependent, forskolin 100 μM

T1 sequence (P43116 whole entry): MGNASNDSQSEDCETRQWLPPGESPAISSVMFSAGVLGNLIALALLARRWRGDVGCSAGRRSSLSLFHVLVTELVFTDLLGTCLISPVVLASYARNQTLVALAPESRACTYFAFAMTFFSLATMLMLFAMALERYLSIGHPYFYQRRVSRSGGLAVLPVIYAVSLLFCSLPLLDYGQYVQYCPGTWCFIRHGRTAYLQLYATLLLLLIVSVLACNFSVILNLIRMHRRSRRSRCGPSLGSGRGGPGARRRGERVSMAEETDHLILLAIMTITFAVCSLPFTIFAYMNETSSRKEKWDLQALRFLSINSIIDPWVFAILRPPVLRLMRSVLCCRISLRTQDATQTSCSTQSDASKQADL

| SMILES | cAMP levels (EP2 receptor [1]; [5]) | cAMP levels (EP2 receptor [2]; [5]) | PGE2-promoted cAMP synthesis (EP2 receptor [1]) | PGE2-promoted cAMP synthesis (EP2 receptor [2]) | cell invasion increased by COX-2 overexpression (human GBM cells SF767) | wound closure increased by COX-2 overexpression (GBM cells LN229) | growth of flank tumors [3] | growth of intracranial tumors ([4]; 10 mg/kg, p.o., b.i.d., bioluminescence weekly, n=7, P<0.01) | survival of mice harboring intracranial tumors ([4]; treatment for 28 days, vehicle n=20, TG6-10-1 n=28, P=2.835E-4, Kaplan-Meier, log-rank) |
| --- | --- | --- | --- | --- | --- | --- | --- | --- | --- |
| CCCCC[C@H](O)/C=C/[C@H]1[C@H](O)CC(=O)[C@@H]1C/C=C\CCCC(=O)O [PGE2, Prostaglandin E2, reference compound] | increases cAMP levels | increases cAMP levels | – | – | – | – | – | – | – |
| COc1cc(/C=C/C(=O)NCCn2c(C)cc3ccccc32)cc(OC)c1OC [TG4-155] | – | – | largely blocked | largely blocked | attenuated | attenuated | – | – | – |
| COc1cc(/C=C/C(=O)NCCn2c(C(F)(F)F)cc3ccccc32)cc(OC)c1OC [TG6-10-1] | – | – | largely blocked | largely blocked | attenuated | attenuated | reduced the growth | reduced the growth | improved survival |
